Data reported in ChEMBL document CHEMBL1268847, “Discovery of orally bioavailable imidazo[1,2-a]pyrazine-based Aurora kinase inhibitors” (Bioorg Med Chem Lett, 2010).

Tests used:
Aurora kinase A = target: T1, Aurora kinase A (Homo sapiens, UniProt O14965); test: Inhibition of Aurora A
T1 sequence (O14965 whole entry): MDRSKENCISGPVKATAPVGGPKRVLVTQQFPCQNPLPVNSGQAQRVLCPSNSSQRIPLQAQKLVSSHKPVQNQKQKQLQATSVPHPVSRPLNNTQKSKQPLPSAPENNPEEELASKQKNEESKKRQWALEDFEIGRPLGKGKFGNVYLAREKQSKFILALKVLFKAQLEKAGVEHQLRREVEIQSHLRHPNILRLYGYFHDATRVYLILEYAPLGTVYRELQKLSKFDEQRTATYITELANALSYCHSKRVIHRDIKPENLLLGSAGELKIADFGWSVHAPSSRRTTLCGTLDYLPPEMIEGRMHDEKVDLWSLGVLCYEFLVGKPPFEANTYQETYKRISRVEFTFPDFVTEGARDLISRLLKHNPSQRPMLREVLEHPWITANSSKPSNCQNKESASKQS

Aurora kinase B = Aurora kinase B (Homo sapiens, UniProt Q96GD4); test: Inhibition of Aurora B
[1] = Inhibition of Aurora kinase assessed as reduction histone H3 Ser10 phosphorylation by cell based assay
[2] = AUC (0-6 hrs) in rat at 10 mg/kg, po; assay type: ADME, organism-based; set-up: time < 6 hr, dose 10 mg/kg, route oral; settings: plasma
[3] = target: Tyrosine-protein kinase Lck (Homo sapiens, UniProt P06239); test: Inhibition of LCK
Sequence of Tyrosine-protein kinase Lck (P06239 whole entry): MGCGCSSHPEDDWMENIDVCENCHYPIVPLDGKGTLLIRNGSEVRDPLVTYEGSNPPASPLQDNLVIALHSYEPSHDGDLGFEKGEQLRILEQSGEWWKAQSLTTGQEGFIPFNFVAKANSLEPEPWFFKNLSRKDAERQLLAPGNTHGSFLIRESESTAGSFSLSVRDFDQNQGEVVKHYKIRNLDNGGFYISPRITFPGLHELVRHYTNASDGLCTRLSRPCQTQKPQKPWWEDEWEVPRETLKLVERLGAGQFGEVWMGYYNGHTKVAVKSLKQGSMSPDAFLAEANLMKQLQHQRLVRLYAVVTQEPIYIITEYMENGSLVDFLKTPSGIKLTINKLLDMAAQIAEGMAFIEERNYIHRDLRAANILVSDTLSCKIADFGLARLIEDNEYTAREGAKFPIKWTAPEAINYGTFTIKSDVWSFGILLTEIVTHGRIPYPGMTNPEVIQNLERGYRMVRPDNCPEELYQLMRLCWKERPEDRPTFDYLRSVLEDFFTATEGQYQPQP

Sequence of Aurora kinase B (Q96GD4 whole entry): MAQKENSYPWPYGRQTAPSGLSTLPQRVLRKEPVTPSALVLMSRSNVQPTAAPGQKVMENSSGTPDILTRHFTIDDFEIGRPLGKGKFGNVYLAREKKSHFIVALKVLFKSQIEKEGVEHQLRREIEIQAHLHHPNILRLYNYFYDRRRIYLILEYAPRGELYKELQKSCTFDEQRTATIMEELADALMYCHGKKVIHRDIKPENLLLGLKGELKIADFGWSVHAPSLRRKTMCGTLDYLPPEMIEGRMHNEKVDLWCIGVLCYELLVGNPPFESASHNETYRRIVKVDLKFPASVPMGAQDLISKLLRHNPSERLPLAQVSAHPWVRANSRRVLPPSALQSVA

| IC50 (Aurora kinase A) [µM] | IC50 (Aurora kinase B) [µM] | EC50 [1] [µM] | AUC(0-t) at 6 h [2] [µM·h] | IC50 [3] [µM] | SMILES |
| --- | --- | --- | --- | --- | --- |
| ≤ 0.004 | ≤ 0.013 | 0.256 | 3.9 | – | Cc1cn2c(-c3cn[nH]c3)cnc2c(Nc2cc(CN3C[C@H](C)OC[C@@H]3C)ns2)n1 |
| ≤ 0.004 | ≤ 0.013 | > 1 | – | – | Cc1cn2c(-c3cn[nH]c3)cnc2c(Nc2cc(CN3CCOC[C@@H]3CO)ns2)n1 |
| ≤ 0.004 | ≤ 0.013 | 0.014 | 0.5 | 0.045 | Cc1cn2c(-c3cn[nH]c3)cnc2c(Nc2cc(CN3CCCCC3(C)C)ns2)n1 |
| ≤ 0.004 | ≤ 0.013 | > 0.5 | – | – | Cc1cn2c(-c3cn[nH]c3)cnc2c(Nc2cc(CN3CCN(S(C)(=O)=O)CC3)ns2)n1 |
| ≤ 0.004 | ≤ 0.013 | 0.25 | – | – | Cc1cn2c(-c3cn[nH]c3)cnc2c(Nc2cc(CN3CCOC(C)(C)C3)ns2)n1 |
| ≤ 0.004 | ≤ 0.013 | > 1 | – | – | Cc1cn2c(-c3cn[nH]c3)cnc2c(Nc2cc(CN3CCN(CCO)CC3)ns2)n1 |
| ≤ 0.004 | ≤ 0.013 | 0.267 | 0.4 | – | Cc1cn2c(-c3cn[nH]c3)cnc2c(Nc2cc(CN3C[C@H]4CC[C@@H](C3)O4)ns2)n1 |
| ≤ 0.004 | ≤ 0.013 | 0.082 | 7.3 | – | Cc1cn2c(-c3cn[nH]c3)cnc2c(Nc2cc(CN3C[C@@H](C)O[C@@H](C)C3)ns2)n1 |

The next lines start with the molecule.

| SMILES | IC50 (Aurora kinase A) [µM] | IC50 (Aurora kinase B) [µM] | EC50 [1] [µM] | AUC(0-t) at 6 h [2] [µM·h] | IC50 [3] [µM] |
| --- | --- | --- | --- | --- | --- |
| Cc1cn2c(-c3cn[nH]c3)cnc2c(Nc2cc(CN3CCN(C)CC3=O)ns2)n1 | ≤ 0.004 | ≤ 0.013 | > 1 | – | – |
| CCOCC(c1cc(Nc2nc(C)cn3c(-c4cn[nH]c4)cnc23)sn1)N1CCOCC1 (racemic) | ≤ 0.004 | ≤ 0.013 | 0.281 | – | – |
| COCC(c1cc(Nc2nc(C)cn3c(-c4cn[nH]c4)cnc23)sn1)N1CCOCC1 (racemic) | ≤ 0.004 | ≤ 0.013 | 0.083 | 2.3 | – |
| CCC(c1cc(Nc2nc(C)cn3c(-c4cn[nH]c4)cnc23)sn1)N1CCOCC1 (racemic) | ≤ 0.004 | ≤ 0.013 | 0.049 | 0.5 | – |
| Cc1cn2c(-c3cn[nH]c3)cnc2c(Nc2cc(CN3CCOCC34CCC4)ns2)n1 | ≤ 0.004 | ≤ 0.013 | 0.197 | 0.4 | – |
| CCOC(=O)N1CCN(Cc2cc(Nc3nc(C)cn4c(-c5cn[nH]c5)cnc34)sn2)CC1 | ≤ 0.004 | ≤ 0.013 | 0.561 | 0.38 | – |
